What all share (type): functional
Assay [1] has as its system Helicoverpa zea. The assay is described as follows: Resistant ratio, ratio of LC90 for F1 generation of adult of Helicoverpa zea (corn earworm) to LC90 for adult of corn earworm.
The subject of assay [2] is Helicoverpa zea. The assay is described as follows: Resistant ratio, ratio of LC90 for F1 generation of third-instar of Helicoverpa zea (corn earworm) to LC90 for third-instar of corn earworm.
Assay [3] deals with Helicoverpa zea. The experiment in a line: Resistant ratio, ratio of LC50 for F1 generation of adult of Helicoverpa zea (corn earworm) to LC50 for adult of corn earworm.
For assay [4], the system named is Helicoverpa zea. The assay is described as follows: Resistant ratio, ratio of LC50 for F1 generation of third-instar of Helicoverpa zea (corn earworm) to LC50 for third-instar of corn earworm.
The test system of assay [5] is Helicoverpa zea. The experiment in a line: Insecticidal activity against F1 generation of adult of Helicoverpa zea (corn earworm) assessed as mortality per insecticide vial after 24 hr.
In assay [6] the test system is Helicoverpa zea. The assay is described as follows: Insecticidal activity against F1 generation of third-instar of Helicoverpa zea (corn earworm) assessed as mortality per insecticide vial after 48 hr.
Assay [7] relates to Helicoverpa zea. The experiment in a line: Insecticidal activity against adult of Helicoverpa zea (corn earworm) assessed as mortality per insecticide vial after 24 hr.
The test system of assay [8] is Helicoverpa zea. The experiment in a line: Insecticidal activity against third-instar of Helicoverpa zea (corn earworm) assessed as mortality per insecticide vial after 48 hr.

`CC1(C)C(C=C(Cl)Cl)C1C(=O)OC(C#N)c1cccc(Oc2ccccc2)c1` (stereo not drawn) [ALPHA-CYPERMETHRIN]: the figures for the Ratio in assay [1] and in assay [2] were 3.82 and 6.28, respectively. Moreover, the RatioLC50 in assay [3] is 4.16; in assay [4] it was 4.68. Further, the LC50 in assay [5] was 2.89 µg; in assay [6], 1.71 µg; in assay [7], 0.7 µg; in assay [8], 0.37 µg. For the same molecule, the LC90 is 7.12 µg in assay [5], 7.68 µg in assay [6], 1.86 µg in assay [7] and 1.22 µg in assay [8].

On to `CC(C)[C@H](C(=O)O[C@H](C#N)c1cccc(Oc2ccccc2)c1)c1ccc(Cl)cc1`, for which the Ratio in assay [1] came to 4.37; in assay [2], 3.17. For the same molecule, the RatioLC50 in assay [3] is recorded as 4.67; in assay [4], 3.75. Also, the LC50 turned out to be 2.3 µg in assay [5], 1.51 µg in assay [6], 0.49 µg in assay [7] and 0.4 µg in assay [8]. In addition, the LC90 in assay [5] turned out to be 5.9 µg; in assay [6], 4.59 µg; in assay [7] it was 1.35 µg; in assay [8], 1.45 µg.

Consider `Cc1c(COC(=O)[C@@H]2[C@H](/C=C(\Cl)C(F)(F)F)C2(C)C)cccc1-c1ccccc1` [BIFENTHRIN], for which the Ratio in assay [1] came out at 5.9; in assay [2] it was 15.22. In addition, the results for the RatioLC50 in assay [3] and in assay [4] were 9.28 and 9.41, respectively. Besides, the LC50 in assay [5] turned out to be 1.54 µg; in assay [6], 1.25 µg; in assay [7], 0.17 µg; in assay [8], 0.13 µg. Further, the LC90 in assay [5] stood at 3.01 µg; in assay [6] it was 5.8 µg; in assay [7], 0.51 µg; in assay [8], 0.38 µg.
